In ChEMBL document CHEMBL4028801, “A multifactorial approach to hepatobiliary transporter assessment enables improved therapeutic compound development” (Toxicol Sci, 2013):

Columns and labels:
[1] = AUC in human at 10 to 20 mg, po BID after 12 hrs; type: ADME, organism-based; settings: in vivo
[2] = Drug concentration at steady state in human at 10 to 20 mg, po BID after 12 hrs; type: ADME, organism-based; settings: in vivo, read-out: Css
Bile salt export pump = Bile salt export pump (Homo sapiens, UniProt O95342); assay: Inhibition of human BSEP overexpressed in Sf9 cell membrane vesicles assessed as uptake of [3H]-taurocholate in presence of ATP measured after 15 to 20 mins by membrane vesicle transport assay; type: ADME, cell-based
[3] = Ratio of drug concentration at steady state in human at 10 to 20 mg, po BID after 12 hrs to IC50 for human MRP2 overexpressed in Sf9 insect cells; type: ADME, organism-based; settings: in vivo
[4] = Ratio of drug concentration at steady state in human at 10 to 20 mg, po BID after 12 hrs to IC50 for human MRP4 overexpressed in Sf9 insect cells; type: ADME, organism-based; settings: in vivo
[5] = target: ATP-binding cassette sub-family C member 2 (Homo sapiens, UniProt Q92887); assay: Inhibition of human MRP2 overexpressed in Sf9 cell membrane vesicles assessed as uptake of [3H]-estradiol-17beta-D-glucuronide in presence of ATP and GSH measured after 20 mins by membrane vesicle transport assay
[6] = target: ATP-binding cassette sub-family C member 3 (Homo sapiens, UniProt O15438); assay: Inhibition of human MRP3 overexpressed in Sf9 insect cell membrane vesicles assessed as uptake of [3H]-estradiol-17beta-D-glucuronide in presence of ATP and GSH measured after 10 mins by membrane vesicle transport assay; type: ADME, cell-based
[7] = Ratio of drug concentration at steady state in human at 10 to 20 mg, po BID after 12 hrs to IC50 for human BSEP overexpressed in Sf9 insect cells; type: ADME, organism-based; settings: in vivo
[8] = target: T1, ATP-binding cassette sub-family C member 4 (Homo sapiens, UniProt O15439); assay: Inhibition of human MRP4 overexpressed in Sf9 cell membrane vesicles assessed as uptake of [3H]-estradiol-17beta-D-glucuronide in presence of ATP and GSH measured after 20 mins by membrane vesicle transport assay; type: ADME, cell-based
T1 sequence (O15439 whole entry): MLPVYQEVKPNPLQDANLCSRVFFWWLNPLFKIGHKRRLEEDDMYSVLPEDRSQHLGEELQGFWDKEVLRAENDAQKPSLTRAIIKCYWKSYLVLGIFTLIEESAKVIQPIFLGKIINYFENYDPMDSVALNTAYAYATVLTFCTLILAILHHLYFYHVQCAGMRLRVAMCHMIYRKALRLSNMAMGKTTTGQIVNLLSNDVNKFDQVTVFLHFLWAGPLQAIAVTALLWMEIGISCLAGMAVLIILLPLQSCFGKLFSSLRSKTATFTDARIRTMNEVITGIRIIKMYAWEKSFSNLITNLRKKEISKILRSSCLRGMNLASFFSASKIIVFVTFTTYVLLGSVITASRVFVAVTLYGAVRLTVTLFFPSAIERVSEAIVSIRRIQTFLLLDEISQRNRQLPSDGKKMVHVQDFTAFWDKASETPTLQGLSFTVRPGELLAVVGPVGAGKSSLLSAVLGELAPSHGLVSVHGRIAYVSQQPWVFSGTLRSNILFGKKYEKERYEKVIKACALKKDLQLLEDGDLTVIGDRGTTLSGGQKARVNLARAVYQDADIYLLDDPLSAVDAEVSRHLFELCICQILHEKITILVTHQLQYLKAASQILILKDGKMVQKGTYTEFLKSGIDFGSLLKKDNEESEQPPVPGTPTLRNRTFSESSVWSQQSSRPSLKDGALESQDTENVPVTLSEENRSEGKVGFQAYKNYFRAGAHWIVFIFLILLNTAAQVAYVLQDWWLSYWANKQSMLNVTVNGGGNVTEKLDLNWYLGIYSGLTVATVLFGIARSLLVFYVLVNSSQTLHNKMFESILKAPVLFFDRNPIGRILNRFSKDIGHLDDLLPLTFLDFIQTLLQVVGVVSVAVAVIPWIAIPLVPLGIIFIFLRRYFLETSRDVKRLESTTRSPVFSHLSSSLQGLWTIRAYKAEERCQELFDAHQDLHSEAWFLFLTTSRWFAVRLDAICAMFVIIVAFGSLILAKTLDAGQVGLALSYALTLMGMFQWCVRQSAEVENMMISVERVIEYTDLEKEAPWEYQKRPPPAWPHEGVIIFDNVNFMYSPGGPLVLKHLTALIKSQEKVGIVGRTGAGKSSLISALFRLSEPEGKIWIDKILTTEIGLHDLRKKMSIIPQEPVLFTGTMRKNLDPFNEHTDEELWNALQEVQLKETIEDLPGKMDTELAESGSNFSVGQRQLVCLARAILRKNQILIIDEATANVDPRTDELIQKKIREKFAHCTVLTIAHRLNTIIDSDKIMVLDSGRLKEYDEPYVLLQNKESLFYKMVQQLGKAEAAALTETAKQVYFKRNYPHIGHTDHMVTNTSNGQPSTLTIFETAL

[9] = AUC in human at 1.25 to 25 mg, po QD after 24 hrs; type: ADME, organism-based; settings: in vivo
[10] = Drug concentration at steady state in human at 1.25 to 25 mg, po QD after 24 hrs; type: ADME, organism-based; settings: in vivo, read-out: Css
[11] = Ratio of drug concentration at steady state in human at 100 to 400 mg, po BID after 12 hrs to IC50 for human BSEP overexpressed in Sf9 insect cells; type: ADME, organism-based; settings: in vivo
[12] = AUC in human at 100 mg, po QD after 24 hrs; type: ADME, organism-based; design: time < 24 hr, dose 100 mg, route oral; settings: in vivo
Homo sapiens [13] = assay: Ratio of drug concentration at steady state in human at 100 mg, po after 24 hrs to IC50 for human BSEP overexpressed in Sf9 insect cells; type: ADME, organism-based; settings: in vivo
[14] = Drug concentration at steady state in human at 100 mg, po QD after 24 hrs; type: ADME, organism-based; settings: in vivo, read-out: Css
[15] = AUC in human at 250 to 500 mg, po QD after 24 hrs; type: ADME, organism-based; settings: in vivo
Homo sapiens [16] = assay: Drug concentration at steady state in human at 25 to 50 mg, po TID after 8 hrs; type: ADME, organism-based; settings: in vivo

ATP-binding cassette sub-family C member 2, sequence (Q92887 whole entry): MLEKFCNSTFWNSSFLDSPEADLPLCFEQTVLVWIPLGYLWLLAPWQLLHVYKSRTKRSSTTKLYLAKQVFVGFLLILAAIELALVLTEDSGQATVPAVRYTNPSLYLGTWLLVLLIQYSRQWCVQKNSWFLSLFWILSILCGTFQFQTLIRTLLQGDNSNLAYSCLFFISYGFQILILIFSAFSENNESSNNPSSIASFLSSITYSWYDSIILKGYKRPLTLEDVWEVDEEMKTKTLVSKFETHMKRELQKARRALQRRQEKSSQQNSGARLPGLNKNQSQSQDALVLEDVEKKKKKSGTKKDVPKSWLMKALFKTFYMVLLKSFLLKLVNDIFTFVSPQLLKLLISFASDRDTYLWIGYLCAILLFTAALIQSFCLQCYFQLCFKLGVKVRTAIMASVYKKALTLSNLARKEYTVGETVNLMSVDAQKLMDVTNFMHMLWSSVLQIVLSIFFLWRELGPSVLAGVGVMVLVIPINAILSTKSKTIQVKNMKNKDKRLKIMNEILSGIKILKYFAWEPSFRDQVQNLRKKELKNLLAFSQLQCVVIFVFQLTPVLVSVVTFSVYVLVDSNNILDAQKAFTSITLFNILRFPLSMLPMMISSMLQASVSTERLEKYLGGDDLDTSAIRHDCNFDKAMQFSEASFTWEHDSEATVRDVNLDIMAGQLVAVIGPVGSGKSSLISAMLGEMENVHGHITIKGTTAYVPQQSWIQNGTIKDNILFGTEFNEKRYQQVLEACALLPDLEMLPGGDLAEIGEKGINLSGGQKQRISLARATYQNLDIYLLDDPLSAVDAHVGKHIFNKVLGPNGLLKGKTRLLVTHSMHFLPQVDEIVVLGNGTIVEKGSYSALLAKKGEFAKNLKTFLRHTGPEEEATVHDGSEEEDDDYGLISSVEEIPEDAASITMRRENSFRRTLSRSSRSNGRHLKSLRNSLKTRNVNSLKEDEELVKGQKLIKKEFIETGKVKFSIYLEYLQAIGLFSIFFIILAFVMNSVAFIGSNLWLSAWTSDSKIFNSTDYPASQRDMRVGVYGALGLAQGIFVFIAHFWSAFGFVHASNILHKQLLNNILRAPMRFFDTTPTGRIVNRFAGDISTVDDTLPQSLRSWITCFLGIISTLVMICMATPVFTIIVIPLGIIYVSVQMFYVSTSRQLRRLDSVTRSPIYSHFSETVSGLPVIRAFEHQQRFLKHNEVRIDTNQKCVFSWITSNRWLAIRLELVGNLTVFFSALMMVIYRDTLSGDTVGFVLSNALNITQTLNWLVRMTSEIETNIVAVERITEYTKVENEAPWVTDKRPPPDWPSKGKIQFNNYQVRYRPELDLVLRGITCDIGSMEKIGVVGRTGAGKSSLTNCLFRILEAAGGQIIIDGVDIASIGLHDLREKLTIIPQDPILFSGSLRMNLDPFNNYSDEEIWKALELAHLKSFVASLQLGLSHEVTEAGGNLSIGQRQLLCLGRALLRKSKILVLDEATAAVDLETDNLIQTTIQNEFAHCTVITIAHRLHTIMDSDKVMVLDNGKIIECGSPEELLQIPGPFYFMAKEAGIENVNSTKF
Bile salt export pump, sequence (O95342 whole entry): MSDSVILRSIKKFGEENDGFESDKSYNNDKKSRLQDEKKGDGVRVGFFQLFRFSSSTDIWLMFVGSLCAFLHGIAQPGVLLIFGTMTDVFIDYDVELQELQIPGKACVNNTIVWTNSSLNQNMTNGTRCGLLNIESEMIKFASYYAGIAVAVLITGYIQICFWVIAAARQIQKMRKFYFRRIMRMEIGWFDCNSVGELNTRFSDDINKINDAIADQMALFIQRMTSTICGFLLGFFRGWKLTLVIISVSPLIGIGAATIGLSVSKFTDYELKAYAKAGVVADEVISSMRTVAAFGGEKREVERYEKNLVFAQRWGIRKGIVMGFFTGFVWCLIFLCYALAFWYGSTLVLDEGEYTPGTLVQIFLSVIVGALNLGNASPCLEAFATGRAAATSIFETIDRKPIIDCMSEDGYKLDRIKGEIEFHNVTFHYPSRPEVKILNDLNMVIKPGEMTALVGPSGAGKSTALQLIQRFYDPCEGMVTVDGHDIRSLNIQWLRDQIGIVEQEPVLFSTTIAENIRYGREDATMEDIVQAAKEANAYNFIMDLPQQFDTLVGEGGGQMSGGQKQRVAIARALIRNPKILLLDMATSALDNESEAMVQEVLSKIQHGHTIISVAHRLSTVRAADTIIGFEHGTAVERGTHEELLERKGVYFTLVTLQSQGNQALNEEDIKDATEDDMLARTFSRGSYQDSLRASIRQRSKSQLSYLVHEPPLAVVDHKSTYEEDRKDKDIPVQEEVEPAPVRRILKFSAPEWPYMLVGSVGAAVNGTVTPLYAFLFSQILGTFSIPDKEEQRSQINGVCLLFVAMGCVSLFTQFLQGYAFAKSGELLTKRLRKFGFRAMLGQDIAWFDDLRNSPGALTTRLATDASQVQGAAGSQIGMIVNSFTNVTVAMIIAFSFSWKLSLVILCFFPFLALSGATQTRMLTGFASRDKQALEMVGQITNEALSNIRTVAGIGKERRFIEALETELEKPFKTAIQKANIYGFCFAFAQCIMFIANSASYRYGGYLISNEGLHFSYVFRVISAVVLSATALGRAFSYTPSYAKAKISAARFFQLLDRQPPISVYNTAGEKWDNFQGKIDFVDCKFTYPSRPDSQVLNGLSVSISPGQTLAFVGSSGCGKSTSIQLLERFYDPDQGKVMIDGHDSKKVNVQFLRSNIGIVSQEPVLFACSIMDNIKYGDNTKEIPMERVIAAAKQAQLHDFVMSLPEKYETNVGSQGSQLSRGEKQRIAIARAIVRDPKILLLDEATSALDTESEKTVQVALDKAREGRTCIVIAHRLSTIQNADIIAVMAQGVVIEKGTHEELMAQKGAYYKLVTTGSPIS
ATP-binding cassette sub-family C member 3, sequence (O15438 whole entry): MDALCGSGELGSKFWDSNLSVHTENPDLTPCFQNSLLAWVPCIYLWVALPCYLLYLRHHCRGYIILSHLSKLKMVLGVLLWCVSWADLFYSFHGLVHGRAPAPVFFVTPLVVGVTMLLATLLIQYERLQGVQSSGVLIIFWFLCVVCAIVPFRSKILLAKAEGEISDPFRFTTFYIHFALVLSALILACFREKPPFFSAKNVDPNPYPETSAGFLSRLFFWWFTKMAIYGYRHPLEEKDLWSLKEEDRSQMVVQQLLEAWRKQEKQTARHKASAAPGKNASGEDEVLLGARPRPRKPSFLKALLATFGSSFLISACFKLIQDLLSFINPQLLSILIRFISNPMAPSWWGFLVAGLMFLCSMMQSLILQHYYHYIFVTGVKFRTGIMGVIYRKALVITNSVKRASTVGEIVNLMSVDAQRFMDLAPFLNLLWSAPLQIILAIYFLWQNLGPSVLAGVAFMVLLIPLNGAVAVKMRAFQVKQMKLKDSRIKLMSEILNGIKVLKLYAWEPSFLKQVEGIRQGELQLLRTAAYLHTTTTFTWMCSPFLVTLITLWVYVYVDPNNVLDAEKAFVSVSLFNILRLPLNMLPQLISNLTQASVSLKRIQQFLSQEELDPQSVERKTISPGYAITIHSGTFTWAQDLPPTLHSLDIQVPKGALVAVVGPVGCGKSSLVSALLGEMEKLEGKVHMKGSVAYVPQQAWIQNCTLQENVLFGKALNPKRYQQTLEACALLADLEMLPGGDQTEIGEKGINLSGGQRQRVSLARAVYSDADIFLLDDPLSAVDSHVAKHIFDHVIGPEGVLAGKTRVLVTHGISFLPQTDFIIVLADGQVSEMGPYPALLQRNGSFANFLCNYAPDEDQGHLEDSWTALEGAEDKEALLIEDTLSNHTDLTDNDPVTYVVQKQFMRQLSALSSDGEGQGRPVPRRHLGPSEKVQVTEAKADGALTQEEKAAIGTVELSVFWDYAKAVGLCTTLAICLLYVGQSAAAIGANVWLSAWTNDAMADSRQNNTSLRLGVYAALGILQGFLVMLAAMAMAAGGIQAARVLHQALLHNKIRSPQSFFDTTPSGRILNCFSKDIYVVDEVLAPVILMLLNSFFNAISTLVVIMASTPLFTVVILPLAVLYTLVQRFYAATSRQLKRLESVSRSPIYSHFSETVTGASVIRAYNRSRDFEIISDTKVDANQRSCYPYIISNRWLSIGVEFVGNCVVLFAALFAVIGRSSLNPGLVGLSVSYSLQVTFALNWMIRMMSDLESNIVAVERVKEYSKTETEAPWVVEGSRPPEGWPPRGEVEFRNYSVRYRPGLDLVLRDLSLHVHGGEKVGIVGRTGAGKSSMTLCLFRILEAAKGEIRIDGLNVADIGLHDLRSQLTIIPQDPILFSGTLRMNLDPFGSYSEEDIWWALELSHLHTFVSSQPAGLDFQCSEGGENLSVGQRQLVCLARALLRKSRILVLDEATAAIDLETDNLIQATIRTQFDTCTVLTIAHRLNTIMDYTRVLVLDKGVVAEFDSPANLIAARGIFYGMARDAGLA

Compound | IC50 [5] | IC50 [6] | IC50 [8] | IC50 (Bile salt export pump) | other results
COCC1=C(C(=O)OC(C)OC(=O)OC(C)C)N2C(=O)[C@@H](NC(=O)/C(=N\OC)c3csc(N)n3)[C@H]2SC1 (stereo not given in full) [CEFPODOXIME PROXETIL] | > 133 µM | > 133 µM | > 133 µM | 81.7 µM | Ratio [11]: 0.022
COCC(=O)O[C@]1(CCN(C)CCCc2nc3ccccc3[nH]2)CCc2cc(F)ccc2[C@@H]1C(C)C.Cl | > 133 µM | > 133 µM | > 133 µM | 43.8 µM | AUC at 24 h [12]: 17.6 µM·h; Ratio (Homo sapiens [13]): 0.017; concentration at 24 h [14]: 735 nM

More lines, main results first:

IC50 [5] | IC50 [6] | IC50 [8] | Compound | IC50 (Bile salt export pump) | other results
58.8 µM | > 133 µM | 12.1 µM | COc1cc(C(=O)NS(=O)(=O)c2ccccc2C)ccc1Cc1cn(C)c2ccc(NC(=O)OC3CCCC3)cc12 [ZAFIRLUKAST] | 11.1 µM | AUC at 12 h [1]: 3.6 µM·h; concentration at 12 h [2]: 300 nM; Ratio [3]: 0.005; Ratio [4]: 0.025; Ratio [7]: 0.027
– | 33 µM | 10.5 µM | COc1ccc(Cl)cc1C(=O)NCCc1ccc(S(=O)(=O)NC(=O)NC2CCCCC2)cc1 [GLYBURIDE] | – | AUC at 24 h [9]: 2.69 µM·h; concentration at 24 h [10]: 112 nM
> 133 µM | > 133 µM | – | COc1cc2ncnc(Nc3ccc(F)c(Cl)c3)c2cc1OCCCN1CCOCC1 [GEFITINIB] | – | AUC at 24 h [15]: 5.38 µM·h
– | 66 µM | – | COc1ccc2c(c1)c(CC(=O)O)c(C)n2C(=O)c1ccc(Cl)cc1 [INDOMETHACIN] | – | Css (Homo sapiens [16]): 1118 nM
